Results: patent US20220396673A1, “METHOD FOR HYDRATING WATER-INSOLUBLE POLYMER CAPABLE OF CONTAINING INTERMEDIATE WATER” (KYUSHU UNIVERSITY, NATIONAL UNIVERSITY CORPORATION, priority 2019, published 2022)

Assay: Incorporation of fat-soluble drug into white turbid aggregate containing PMEA
Conditions: diluted in PBS, 37° C., fluorescence microscopy after 3 days
Method: The dialysis was carried out for 3 days while changing the purified water until the coloring of the external solvent by the elution of DOX was sufficiently removed.
In addition, the white turbid aggregate was diluted in PBS, allowed to stand in an incubator at 37° C., and then the doxorubicin content was confirmed by fluorescence microscopy (after 3 days).

SMILES: COc1cccc2c1C(=O)c1c(O)c3c(c(O)c1C2=O)C[C@@](O)(C(=O)CO)C[C@@H]3O[C@H]1C[C@H](N)[C@H](O)[C@H](C)O1 [doxorubicin]
- doxorubicin content of the aggregate after storage: confirmed
